Measurements taken from patent publication US20060199867A1, “Ambroxol for the treatment of chronic pain” (Boehringer Ingelheim Pharma GmbH, priority 2002, published 2006).
pIC50: −log10 of the molar value. Structures can show the parent of a compound that is named as a salt.

Assays:
[1] = test system: formalin-induced nociceptive behaviors (flinches, licking); assay: Formalin Paw Test; format: in vivo; settings: Rattus norvegicus, po, male rats, dose at which control values are inhibited by 50%
Description: Formalin Paw Test (Ref: Carlton S M and Zhou S: Attenuation of formalin-induced nociceptive behaviors following local peripheral injection of gabapeptin. Pain 76, 201-207, 1998). Male rats (Chbb: THOM) weighing 250-300 grams are used. 20 μl of a 2% formaldehyde solution is injected into the plantar region of the right hind paw. Immediately after, the number of flinches (twitches of the affected hind paw) and the length of time spent licking the affected paw are recorded over a period of one hour. After 5 minutes in each case the values are grouped together into epochs. From the epoch values, time-effect curves for flinches and licking are plotted. Typically, two phases of formalin effect are observed (flinches, licking). A first phase lasting 0-10 minutes and a second phase lasting 10-60 minutes. Between the two phases the number of flinches and duration of licking fall towards 0 (interphase). From the time-effect curves the areas under the curve for the first phase and for the second phase are determined. Usually, 5 animals are used for each control, placebo and dose of substance. The results of the doses of substance are compared with those of the controls and ED50 values are calculated. The ED50 is the dose at which the control values are inhibited by 50%.

[2] = test system: neuropathic pain (tactile allodynia, thermal hyperalgesia); assay: test models for neuropathic pain in the rat; format: in vivo; settings: neuropathic pain models in the rat (Bennett and Xie; Seltzer et al.)
Excerpt: (1) Bennett G J and Xie Y-K. A peripheral mononeuropathy in rat that produces disorders of pain sensation like those seen in man. Pain 33, 87-107, […]. (2) Seltzer, Z., Dubner R. and Shir, Y. A novel behavioral model of neuropathic pain disorder. Pain 43, 205-218, 1990.

[3] = test system: Tetrodotoxin-sensitive currents; format: cell-based, rat; settings: read-out: IC50 tetrodotoxin-sensitive currents; neurone cultures from the posterior root ganglions of adult rats

Row | SMILES | ED50 [1] [mg/kg] | tactile allodynia [2] | thermal hyperalgesia [2] | pIC50 [3]
1 | Nc1c(Br)cc(Br)cc1CN[C@H]1CC[C@H](O)CC1 [ambroxol hydrochloride] | 70 |  |  | 
2 | Nc1c(Br)cc(Br)cc1CN[C@H]1CC[C@H](O)CC1 [ambroxol, trans-4-(2-amino-3,5-dibrombenzylamino)-cyclohexanol] |  | reduced the tactile allodynia | reduced | < 4.00
